Reference: US12201640B2, “19-nor C3,3-disubstituted C21-n-pyrazolyl steroids and methods of use thereof” (Sage Therapeutics, Inc., priority 2013, dated 2025)

Key:
GABAA receptor α1β2γ2 = biological target: T1, GABAA receptor α1β2γ2 (Homo sapiens, UniProt P14867+P47870); assay: Patch clamp electrophysiology, Qpatch in Ltk cells; format: cell-based; conditions: 10 μM test article, GABA EC20 2 μM, read-out: GABA (α1β2γ2) Qpatch in Ltk, % efficacy at 10 μM
T1 construct: expressed in transfected cells
Protocol: (§1) Patch Clamp Electrophysiology of Recombinant α1β2γ2 and α4β3δ GABAA Receptors
(§2) Cellular electrophysiology is used to measure the pharmacological properties of our GABAA receptor modulators in heterologous cell systems. Each compound is tested for its ability to affect GABA mediated currents at a submaximal agonist dose (GABA EC20=2 μM). LTK cells are stably transfected with the α1β2γ2 subunits of the GABA receptor and CHO cells are transiently transfected with the α4β3δ subunits via the Lipofecatamine method. Cells were passaged at a confluence of about 50-80% and then seeded onto 35 mm sterile culture dishes containing 2 ml culture complete medium without antibiotics or antimycotics. Confluent clusters of cells are electrically coupled (Pritchett et al., Science, 1988, 242, 1306-1308.). Because responses in distant cells are not adequately voltage clamped and because of uncertainties about the extent of coupling (Verdoorn et al., Neuron 1990, 4, 919-928.), cells were cultivated at a density that enables the recording of single cells (without visible connections to other cells).
(§3) Whole cell currents were measured with HEKA EPC-10 amplifiers using PatchMaster software or by using the high throughput QPatch platform (Sophion). Bath solution for all experiments contained (in mM): NaCl 137 mM, KCl 4 mM, CaCl2 1.8 mM, MgCl2 1 mM, HEPES 10 mM, D-Glucose 10 mM, pH (NaOH) 7.4. In some cases 0.005% cremophor was also added. Intracellular (pipette) solution contained: KCl 130 mM, MgCl2 1 mM, Mg-ATP 5 mM, HEPES 10 mM, EGTA 5 mM, pH 7.2. During experiments, cells and solutions were maintained at room temperature (19° C.-30° C.). For manual patch clamp recordings, cell culture dishes were placed on the dish holder of the microscope and continuously perfused (1 ml/min) with bath solution. After formation of a Gigaohm seal between the patch electrodes and the cell (pipette resistance range: 2.5 MΩ-6.0 MΩ; seal resistance range: >1 GΩ) the cell membrane across the pipette tip was ruptured to assure electrical access to the cell interior (whole-cell patch-configuration). For experiments using the QPatch system, cells were transferred as suspension to the QPatch system in the bath solution and automated whole cell recordings were performed.
(§4) Cells were voltage clamped at a holding potential of −80 mV. For the analysis of test articles, GABA receptors were stimulated by 2 μM GABA after sequential pre-incubation of increasing concentrations of the test article. Pre-incubation duration was 30 s and the duration of the GABA stimulus was 2 s. Test articles were dissolved in DMSO to form stock solutions (10 mM). Test articles were diluted to 0.01, 0.1, 1, and 10 μM in bath solution. All concentrations of test articles were tested on each cell. The relative percentage potentiation was defined as the peak amplitude in response to GABA EC20 in the presence of the test article divided by the peak amplitude in response to GABA EC20 alone, multiplied by 100.

[1] = biological target: [35S]-TBPS binding, rat brain cortical membranes (GABA receptor complex); assay: Steroid inhibition of [35S]-TBPS binding; conditions: 3 nM [35S]-TBPS, 5 μM GABA
Protocol: Steroid Inhibition of TBPS Binding
[35S]-t-Butylbicyclophosphorothionate (TBPS) binding assays using rat brain cortical membranes in the presence of 5 μM GABA has been described (Gee et al, J. Pharmacol. Exp. Ther. 1987, 241, 346-353; Hawkinson et al, Mol. Pharmacol. 1994, 46, 977-985; Lewin, A. H et al., Mol. Pharmacol. 1989, 35, 189-194).
Briefly, cortices are rapidly removed following decapitation of carbon dioxide-anesthetized Sprague-Dawley rats (200-250 g). The cortices are homogenized in 10 volumes of ice-cold 0.32 M sucrose using a glass/teflon homogenizer and centrifuged at 1500×g for 10 min at 4° C. The resultant supernatants are centrifuged at 10,000×g for 20 min at 4° C. to obtain the P2 pellets. The P2 pellets are resuspended in 200 mM NaCl/50 mM Na-K phosphate pH 7.4 buffer and centrifuged at 10,000×g for 10 min at 4° C. This washing procedure is repeated twice and the pellets are resuspended in 10 volumes of buffer. Aliquots (100 μL) of the membrane suspensions are incubated with 3 nM [^35S]-TBPS and 5 μL aliquots of test drug dissolved in dimethyl sulfoxide (DMSO) (final 0.5%) in the presence of 5 μM GABA. The incubation is brought to a final volume of 1.0 mL with buffer. Nonspecific binding is determined in the presence of 2 μM unlabeled TBPS and ranged from 15 to 25%. Following a 90 min incubation at room temp, the assays are terminated by filtration through glass fiber filters (Schleicher and Schuell No. 32) using a cell harvester (Brandel) and rinsed three times with ice-cold buffer. Filter bound radioactivity is measured by liquid scintillation spectrometry. Non-linear curve fitting of the overall data for each drug averaged for each concentration is done using Prism (GraphPad). […] The concentration of test compound producing 50% inhibition (IC50) of specific binding and the maximal extent of inhibition (Imax) are determined for the individual experiments with the same model used for the overall data and then the means±SEM.s of the individual experiments are calculated.
Various compounds are or can be screened to determine their potential as modulators of [^35S]-TBPS binding in vitro. These assays are or can be performed in accordance with the above discussed procedures.

GABAA receptor α4β3δ = biological target: T2, GABAA receptor α4β3δ (Homo sapiens, UniProt P28472+P48169); assay: Patch clamp electrophysiology, manual patch in CHO cells; format: cell-based; conditions: 10 μM test article, GABA EC20 2 μM, read-out: GABA (α4β3δ) Manual patch in CHO, % efficacy at 10 μM
T2 construct: expressed in transfected cells; host or cells: CHO cells (transient, lipofection)
Protocol: as §1, §2, §3, §4

GABAA-R = biological target: T3, GABAA-R (Homo sapiens, UniProt P14867+P47870); assay: Electrophysiological evaluation at GABAA-R (Table 2); format: cell-based; conditions: GABAA-R electrophysiology; for EC50: read-out: EC50
T3 sequence (P14867 1-456): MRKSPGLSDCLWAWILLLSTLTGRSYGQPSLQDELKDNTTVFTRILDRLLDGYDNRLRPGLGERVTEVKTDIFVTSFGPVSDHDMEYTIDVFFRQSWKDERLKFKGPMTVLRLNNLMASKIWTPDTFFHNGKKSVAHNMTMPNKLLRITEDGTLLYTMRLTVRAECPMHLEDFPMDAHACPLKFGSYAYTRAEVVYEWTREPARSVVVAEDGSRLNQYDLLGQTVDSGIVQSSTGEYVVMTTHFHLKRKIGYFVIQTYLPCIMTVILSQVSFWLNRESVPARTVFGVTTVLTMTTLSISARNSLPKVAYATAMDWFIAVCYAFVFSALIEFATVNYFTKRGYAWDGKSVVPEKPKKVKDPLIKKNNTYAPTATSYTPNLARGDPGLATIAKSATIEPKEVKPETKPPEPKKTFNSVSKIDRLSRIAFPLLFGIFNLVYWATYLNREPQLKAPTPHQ
T3 sequence (P47870 1-512): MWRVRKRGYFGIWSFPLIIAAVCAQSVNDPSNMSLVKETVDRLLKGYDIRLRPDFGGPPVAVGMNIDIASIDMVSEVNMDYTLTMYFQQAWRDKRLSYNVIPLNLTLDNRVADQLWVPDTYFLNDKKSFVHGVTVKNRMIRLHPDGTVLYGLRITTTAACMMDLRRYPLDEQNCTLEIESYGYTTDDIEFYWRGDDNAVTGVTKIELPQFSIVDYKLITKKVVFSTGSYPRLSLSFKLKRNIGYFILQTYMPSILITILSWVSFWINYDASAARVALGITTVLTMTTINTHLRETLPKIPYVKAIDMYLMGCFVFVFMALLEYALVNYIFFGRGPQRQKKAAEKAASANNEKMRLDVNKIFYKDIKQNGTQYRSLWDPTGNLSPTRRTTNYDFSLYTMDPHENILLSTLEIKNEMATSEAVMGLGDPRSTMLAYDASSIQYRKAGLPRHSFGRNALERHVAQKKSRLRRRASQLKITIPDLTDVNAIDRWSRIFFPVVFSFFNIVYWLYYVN
Protocol: as §1, §2, §3, §4

T1 sequence (P18507 40-475 partner, one chain of several): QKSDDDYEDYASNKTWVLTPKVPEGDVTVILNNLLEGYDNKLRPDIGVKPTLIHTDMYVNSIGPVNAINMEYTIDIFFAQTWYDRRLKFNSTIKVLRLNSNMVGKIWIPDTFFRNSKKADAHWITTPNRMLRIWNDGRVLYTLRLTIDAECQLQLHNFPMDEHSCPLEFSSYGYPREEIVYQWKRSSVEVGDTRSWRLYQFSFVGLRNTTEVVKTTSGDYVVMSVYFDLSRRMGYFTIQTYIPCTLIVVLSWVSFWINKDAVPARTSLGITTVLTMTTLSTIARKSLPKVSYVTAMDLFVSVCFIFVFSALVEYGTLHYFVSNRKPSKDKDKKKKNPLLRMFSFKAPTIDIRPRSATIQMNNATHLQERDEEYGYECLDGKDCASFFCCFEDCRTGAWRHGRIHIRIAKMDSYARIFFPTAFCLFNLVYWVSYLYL
T2 sequence (P48169 36-554): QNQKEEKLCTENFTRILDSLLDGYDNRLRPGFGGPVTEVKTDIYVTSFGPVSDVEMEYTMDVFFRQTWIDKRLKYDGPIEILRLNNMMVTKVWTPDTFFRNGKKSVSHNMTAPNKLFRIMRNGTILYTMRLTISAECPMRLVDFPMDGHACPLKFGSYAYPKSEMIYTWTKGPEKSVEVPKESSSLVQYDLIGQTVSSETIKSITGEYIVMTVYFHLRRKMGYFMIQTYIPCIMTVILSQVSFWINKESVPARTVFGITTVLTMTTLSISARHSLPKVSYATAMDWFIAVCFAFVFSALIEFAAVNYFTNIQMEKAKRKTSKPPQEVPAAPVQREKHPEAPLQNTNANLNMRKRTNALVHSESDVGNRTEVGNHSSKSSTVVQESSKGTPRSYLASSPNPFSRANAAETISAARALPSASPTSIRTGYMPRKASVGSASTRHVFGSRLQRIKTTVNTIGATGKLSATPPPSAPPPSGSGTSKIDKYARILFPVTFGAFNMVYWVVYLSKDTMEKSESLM
T2 sequence (P28472 26-473): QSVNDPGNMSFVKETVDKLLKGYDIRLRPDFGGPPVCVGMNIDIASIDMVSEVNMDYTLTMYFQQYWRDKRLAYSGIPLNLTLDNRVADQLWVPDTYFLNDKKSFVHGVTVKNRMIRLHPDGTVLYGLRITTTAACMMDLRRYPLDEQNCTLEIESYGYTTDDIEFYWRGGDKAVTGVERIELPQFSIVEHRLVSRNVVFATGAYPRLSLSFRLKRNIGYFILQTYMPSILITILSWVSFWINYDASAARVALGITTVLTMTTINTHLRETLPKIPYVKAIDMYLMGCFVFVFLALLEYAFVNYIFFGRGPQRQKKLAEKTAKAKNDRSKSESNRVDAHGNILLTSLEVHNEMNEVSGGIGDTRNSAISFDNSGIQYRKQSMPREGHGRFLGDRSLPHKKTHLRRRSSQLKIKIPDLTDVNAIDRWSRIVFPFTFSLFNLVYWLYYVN
T2 sequence (O14764 25-452 partner): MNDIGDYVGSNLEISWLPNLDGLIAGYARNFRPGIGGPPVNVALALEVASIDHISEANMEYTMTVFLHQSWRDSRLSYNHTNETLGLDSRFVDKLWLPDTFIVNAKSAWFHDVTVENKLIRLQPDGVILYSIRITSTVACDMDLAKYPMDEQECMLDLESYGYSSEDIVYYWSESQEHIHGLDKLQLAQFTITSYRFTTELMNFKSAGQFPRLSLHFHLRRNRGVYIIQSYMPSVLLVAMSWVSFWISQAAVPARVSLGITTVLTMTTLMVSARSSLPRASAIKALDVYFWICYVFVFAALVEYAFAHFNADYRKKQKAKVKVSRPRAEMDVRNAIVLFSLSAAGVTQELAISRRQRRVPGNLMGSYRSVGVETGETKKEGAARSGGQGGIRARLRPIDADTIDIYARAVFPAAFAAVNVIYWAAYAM

SMILES	Emax at 10 µM (GABAA receptor α1β2γ2) [%]	IC50 [1] [nM]	Emax at 10 µM (GABAA receptor α4β3δ) [%]	Emax (GABAA-R) [%]	EC50 (GABAA-R) [nM]
C[C@@]1(O)CC[C@@H]2[C@H]3CC[C@]4(C)[C@@H](C(=O)Cn5cccn5)CC[C@H]4[C@@H]3C[C@@H](F)[C@H]2C1 [SB-10]	100 to 500	100 to 500	100 to 500		
C[C@@]1(O)CC[C@H]2[C@H](CC[C@@H]3[C@@H]2CC[C@]2(C)[C@@H](C(=O)Cn4cc(Br)cn4)CC[C@@H]32)C1 [SA-9]	100 to 500	10 to 50	> 500	0 to 500	100 to 500
C[C@@]1(O)CC[C@H]2[C@H](CC[C@@H]3[C@@H]2CC[C@]2(C)[C@@H](C(=O)Cn4cc([N+](=O)[O-])cn4)CC[C@@H]32)C1 [SA-8]	100 to 500	10 to 50		0 to 500	1000 to 2000
C[C@@]1(O)CC[C@@H]2[C@H]3CC[C@]4(C)[C@@H](C(=O)Cn5cc(C#N)cn5)CC[C@H]4[C@@H]3C[C@@H](F)[C@H]2C1 [SB-11]	100 to 500		> 500		
C[C@@]1(O)CC[C@@H]2[C@H]3CC[C@]4(C)[C@@H](C(=O)Cn5cc(S(C)(=O)=O)cn5)CC[C@H]4[C@@H]3C[C@@H](F)[C@H]2C1 [SB-15]	100 to 500		> 500		
CC(=O)c1ccn(CC(=O)[C@H]2CC[C@H]3[C@@H]4CC[C@@H]5C[C@](C)(O)CC[C@@H]5[C@H]4CC[C@]23C)n1 [SA-5]	> 500	< 10			> 2000
C[C@@]1(O)CC[C@H]2[C@@H](CC[C@@H]3[C@@H]2CC[C@]2(C)[C@@H](C(=O)Cn4cccn4)CC[C@@H]32)C1 [SB-1]	100 to 500	100 to 500	100 to 500		
C[C@]12CC[C@H]3[C@@H](CC[C@@H]4C[C@@](O)(CF)CC[C@@H]43)[C@@H]1CC[C@@H]2C(=O)Cn1cc(C#N)cn1 [SA-32]	> 500	10 to 50	> 500		
C[C@@]1(O)CC[C@H]2[C@H](CC[C@@H]3[C@@H]2CC[C@]2(C)[C@@H](C(=O)Cn4cc(Cl)cn4)CC[C@@H]32)C1 [SA-7]	> 500	10 to 50	> 500	0 to 500	1000 to 2000
Cc1ccnn1CC(=O)[C@H]1CC[C@H]2[C@@H]3CC[C@@H]4C[C@](C)(O)CC[C@@H]4[C@H]3CC[C@]12C [SA-10]	100 to 500	50 to 100		0 to 500	> 2000
Cc1ccn(CC(=O)[C@H]2CC[C@H]3[C@@H]4CC[C@@H]5C[C@](C)(O)CC[C@@H]5[C@H]4CC[C@]23C)n1 [SA-11]	> 500	10 to 50		500 to 1000	1000 to 2000
COC[C@@]1(O)CC[C@H]2[C@H](CC[C@@H]3[C@@H]2CC[C@]2(C)[C@@H](C(=O)Cn4cc(C#N)cn4)CC[C@@H]32)C1 [SA-24]	> 500	10 to 50	> 500		
COC[C@@]1(O)CC[C@H]2[C@@H](CC[C@@H]3[C@@H]2CC[C@]2(C)[C@@H](C(=O)Cn4cc(C#N)cn4)CC[C@@H]32)C1 [SB-5]	> 500	10 to 50	100 to 500		
C[C@@]1(O)CC[C@H]2[C@H](CC[C@@H]3[C@@H]2CC[C@]2(C)[C@@H](C(=O)Cn4ccc(C(F)(F)F)n4)CC[C@@H]32)C1 [SA-1]	> 500	< 10		500 to 1000	1000 to 2000
C[C@@]1(O)CC[C@H]2[C@@H](CC[C@@H]3[C@@H]2CC[C@]2(C)[C@@H](C(=O)Cn4cc(C#N)cn4)CC[C@@H]32)C1 [SB-2]	100 to 500		100 to 500		
C[C@@]1(O)CC[C@H]2[C@H](CC[C@@H]3[C@@H]2CC[C@]2(C)[C@@H](C(=O)Cn4nccc4C(F)(F)F)CC[C@@H]32)C1 [SA-2]	> 500	50 to 100		500 to 1000	> 2000
